Laboratory results reported in patent publication US20080201790A1, “Method and product for regulating cell responsiveness to external signals” (priority 1993, published 2008).
One block for each substance: values may come before it.

What was measured:
[1] = test system: Swiss 3T3 cells and REF52 cells; experiment: Beauvericin-induced apoptosis, anti-tubulin and propidium iodide staining; type: cell-based; conditions: 50 μM, 6 hours at 37° C.
Method: A first group of transfected Swiss 3T3 cells and REF52 cells were treated with 50 μM beauvericin for 6 hours at 37° C. Beauvericin is a compound known to induce apoptosis in mammalian cells. A second group of cells were treated with a control buffer lacking beauvericin. The treated cells were then fixed in paraformaldehyde and permeabilized with saponin using protocols standard in the art. The permeabilized cells were then labelled by incubating the cells with a fluorescein-labelled anti-tubulin antibody (1:500; obtained from GIBCO, Gaithersburg, Md.) to detect cytoplasmic shrinkage or 10 μM propidium iodide (obtained from Sigma, St. Louis, Mo.) to stain DNA to detect nuclear condensation. The labelled cells were then viewed by differential fluorescent imaging using a Nikon Diaphot fluorescent microscope.

98 kD PC12 cell MEKK = experiment: MEKK immunoprecipitate kinase assay from PC12 cells with kinase inactive MEK-1; type: cell-based; conditions: serum starved PC12 cells
Method: Reactions were stopped by the addition of 2×SDS sample buffer (20 μl). The samples were boiled for 3 minutes and subjected to SDS-PAGE and autoradiography. Raf-B was immunoprecipitated from the same untreated and treated PC12 cell lysates as above with an antiserum to a COOH-terminal peptide of Raf-B (Santa Cruz Biotechnology, Inc.) and assayed similarly. Raf-1 was immunoprecipitated with an antiserum to the 12 COOH-terminal amino acids of Raf-1 (Santa Cruz Biotechnology, Inc.).
Data represent the relative magnitude of the response for each timepoint as quantitated by phosphorimager analysis of radioactive gels from a typical experiment.
Expression of N^17Ras was induced in PC12 clones stably transfected with the N^17Ras gene by the addition of dexamethasone to the starvation media. […] PC12 cell clones stably transfected with the N^17Ras gene are less responsive to EGF-mediated activation of MEKK activity than are wild type PC12 cells. […] MEKK activity in immunoprecipitates or column fractions was dissociable from that of EGF-stimulated c-Raf-1 and Raf-B activities.
To determine whether the growth factor-mediated activation of 98 kD PC12 cell MEKK was inhibited by PKA, forskolin was used to elevate intracellular cAMP and activate PKA. […] Raf-B activity was also assayed from the same cell lysates to test whether its regulation differed from that of MEKK. Raf-B was immunoprecipitated from the same cell lysates as described above and assayed for its ability to phosphorylate MEK-1 as described above.

Raf-B = Raf-B immunoprecipitate kinase assay from PC12 cells with kinase inactive MEK-1; type: cell-based; conditions: EGF 30 ng/ml, serum starved PC12 cells
Raf [2] = experiment: Raf activation assay (immunoprecipitated Raf, kinase-inactive MEK-1) in Rat 1a cells; type: cell-based
Method: (§1) Differential regulation of MEK in Rat 1a and NIH3T3 cells expressing gip2, v-src, v-ras, or v-raf led the present inventor to investigate the protein kinases that are putative regulators of MEK-1. Recently, it was shown that Raf-1 can phosphorylate and activate MEK. […] Cells were serum starved and challenged in the presence or absence of the appropriate growth factors, as described above. […] Cells were lysed by scraping in ice cold RIPA buffer (50 mM Tris, pH 7.2, 150 mM NaCl, 0.1% SDS, 0.5% sodium deoxycholate, 1.0% Triton X 100, 10 mM sodium pyrophosphate, 25 mM sodium glycerophosphate, 2 mM sodium vanadate, 2.1 μg/ml aprotinin) and were microfuged for 10 min to remove nuclei. The supernatants were normalized for protein content and precleared with protein A Sepharose prior to immunoprecipitation with rabbit antiserum to the C terminus of Raf-1 and protein A Sepharose for 2-3 h at 4° C. The beads were washed twice with ice cold RIPA and twice with PAN (10 mM Pipes, pH 7.0, 100 mM NaCl, 21 μg/ml aprotinin). A portion of the immunoprecipitate was diluted with SDS sample buffer and used for immunoblot analysis. […] Wild type recombinant MEK-1 was autophosphorylated in parallel as a marker. Reactions were terminated by the addition of 12.5 μl 5×SDS sample buffer, boiled for 5 minutes and subjected to SDS-PAGE and autoradiography.

Raf [3] = experiment: Raf activation assay (immunoprecipitated Raf, kinase-inactive MEK-1) in NIH3T3 cells; type: cell-based
Method: as §1

MEKK1 = experiment: Cellular localization of MEKK1 in Swiss 3T3 cells, antibody staining; type: cell-based; conditions: serum starved Swiss 3T3 cells, 10 minutes
Description: (§2) Cells were fixed and stained with an antibody specifically recognizing either MEKK1 or MEKK2. Secondary FITC-conjugated anti-rabbit IgG antibody was used for staining.

MEKK2 = experiment: Cellular localization of MEKK2 in Swiss 3T3 cells, antibody staining; type: cell-based; conditions: serum starved Swiss 3T3 cells, 10 minutes
Description: as §2

GST-Ras^V12 = experiment: Binding of COS cell-expressed MEKK1 proteins to GST-Ras^V12 agarose; conditions: COS cell lysates, immunoblot
Description: COS cells were transiently transfected by the DEAE-dextran protocol as generally described in Example 3. Cos cells were transfected with: (1) p-MEKK1 containing a nucleic acid molecule encoding MEKK1 as described in Lange-Carter et al. (Science 260:315-319, […]); (2) p-MEKKNH2 containing a nucleic acid molecule that encodes a 858 base pair Pvull(682)-Ncol(1541) restriction digest fragment of the amino terminus of MEKK1 ligated into pCMV5; (3) p-MEKKCOOH containing a nucleic acid molecule that encodes a 1435 base pair Ncol(1541)-Sspl(2976) restriction digest fragment that includes the entire kinase domain of MEKK1 ligated into pCMV5; (4) pCMV5 without insert; or (5) p-C4Raf containing a nucleic acid molecule that encodes the amino terminus of Raf-1 ligated into pCMV5. COS cells expressing the various MEKK1 proteins were […] COS cells expressing the various MEKK1 proteins were lysed in EB (1% Triton X-100, 10 mM Tris HCl [pH 7.4], 5 mM EDTA, 50 mM NaCl, 50 mM NaF, 0.1% bovine serum albumin, 0.2 U/ml aprotinin, 1 mM phenylmethylsulfonyl fluoride and 2 mM Na3 VO4). The lysates were separated into two equal parts for separate binding reactions. Half of the lysate was incubated with GST agarose (1.5 μg) while half of the lysate was incubated with GST-Ras^V12 agarose (1.5 μg) (purchased from UBI) for 1 hr at 4° C. […]

MEK = MEK activity in cell lysates from thrombin stimulated Rat 1a cells; type: cell-based
Description: This Example Describes the Determination of Whether a Similar or Distinct MEK Activity is Involved in Activation of MAPK Though Gi Protein Coupled Receptors by Measuring MEK Activity in Cell Lysates from Thrombin Stimulated Rat 1a Cells

MAPK = experiment: Thrombin stimulation of MAPK; type: cell-based
GST-Cdc42 = GST-Cdc42 (Homo sapiens, UniProt P60953); experiment: Binding of MEKK4 to GST fusion protein on glutathione-Sepharose, Cdc42
Method: (§3) GST fusion proteins encoding Cdc42 or Rac loaded with either GTPγs or GDP were incubated with MEKK4 using previously described methods (Russell, M. et al. (1995) J. Biol. Chem. 270:11757-11760). The source of MEKK4 was either from a Cos cell transient transfection or a recombinant MEKK4 protein expressed in E. coli. The recombinant MEKK4 protein was truncated to express residues from 1261-1597 of the full length protein. A GST fusion protein of Ha-Ras was used as a control. The MEKK4 protein was incubated for 1 hr at 4° C. with either GST-Cdc42, GST-Rac or GST-Ras bound to glutathione-Sepharose beads. Each GST fusion protein had GTPγs or GDP bound to the Cdc42, Rac or Ras moiety of the fusion protein. Following the incubation the beads were washed extensively and the bound proteins removed in SDS-Laemmli buffer and resolved by SDS-PAGE using 10% acrylamide gels. The proteins were transferred to nitrocellulose and immunoblotted using a MEKK4 specific antibody recognizing the extreme COOH-terminus of MEKK4. […] The GDP bound forms of GST-Cdc42 and GST-Rac bound less than 10% of the MEKK4 bound in the presence of GTPγs.

GST-Rac = GST-Rac (Homo sapiens, UniProt P63000); experiment: Binding of MEKK4 to GST fusion protein on glutathione-Sepharose, Rac
Method: as §3

GST-Ras = GST-Ras (Homo sapiens, UniProt P01112); experiment: Binding of MEKK4 to GST fusion protein on glutathione-Sepharose, Ras; conditions: GTPγS or GDP bound form
Method: as §3

Sequence of GST-Cdc42 (P60953 whole entry, the tested form may be a part): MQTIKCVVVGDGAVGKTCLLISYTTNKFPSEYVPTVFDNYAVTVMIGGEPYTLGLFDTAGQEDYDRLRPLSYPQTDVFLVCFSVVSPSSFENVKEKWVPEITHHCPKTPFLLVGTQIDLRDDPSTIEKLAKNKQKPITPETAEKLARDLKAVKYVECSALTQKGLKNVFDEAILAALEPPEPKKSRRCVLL
Sequence of GST-Ras (P01112 whole entry, the tested form may be a part): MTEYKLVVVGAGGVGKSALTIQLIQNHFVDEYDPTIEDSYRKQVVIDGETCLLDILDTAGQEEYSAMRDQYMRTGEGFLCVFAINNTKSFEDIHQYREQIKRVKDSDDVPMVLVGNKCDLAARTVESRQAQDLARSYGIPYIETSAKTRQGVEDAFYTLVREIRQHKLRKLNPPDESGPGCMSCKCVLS

Substance: beauvericin
morphology characteristic of apoptosis [1]: cytoplasmic shrinkage (monitored by the anti-tubulin antibodies) and nuclear condensation

Substance: EGF: human EGF, epidermal growth factor
persistence of MEKK activation (98 kD PC12 cell MEKK; EGF 30 ng/ml): at least 30 minutes | MEKK activity after stimulation (in words) (98 kD PC12 cell MEKK; 5 minutes): increased MEKK activity | time of peak Raf-B activity (Raf-B): 3 to 5 min | Raf catalyzed phosphorylation of MEK-1 (Raf [2]; Gip2 expressing Rat 1a cells): 1.8 fold | Raf phosphorylation of recombinant MEK-1 over basal (Raf [2]; Rat 1a cells): approximately 2.6 fold | Raf catalyzed phosphorylation of MEK-1 (Raf [2]; v-Src expressing Rat 1a cells): 1.4 fold | activation of Raf (Raf [3]): approximately 2.7 fold | cellular localization of MEKK1 (MEKK1): induced a dramatic translocation of MEKK1 to the plasma membrane | cellular localization of MEKK2 (MEKK2): did not effect the cellular localization of MEKK2

Substance: C4Raf: amino terminus of Raf-1 encoded by p-C4Raf [reference compound]
binding to GST-Ras^V12 (in words) (GST-Ras^V12): bound to GST-Ras^V12(GTPγS) agarose

Substance: thrombin
activation of Raf (in words) (Raf [2]; Rat 1a cells): did not measurably activate Raf | activation of Raf (in words) (Raf [3]): does not | magnitude of MEK activity relative to EGF stimulation (MEK): two to three-fold less | stimulation of MEK over basal (MEK): two to three-fold over basal | time of maximal stimulation of MAPK (MAPK): 3 min

binding to Cdc42 in the GTPγS form (GST-Cdc42; 1 hr at 4° C., immunoblot): specifically bound | MEKK4 bound by GDP form relative to GTPγs form (GST-Cdc42; GST-Cdc42): less than 10% | binding to Rac in the GTPγS form (GST-Rac; 1 hr at 4° C., immunoblot): specifically bound | MEKK4 bound by GDP form relative to GTPγs form (GST-Rac; GST-Rac): less than 10% | binding to Ras (GST-Ras): did not bind significantly
Substance: MEKK4: MEK kinase 4 protein, SEQ ID No. 12 / 14
